The text below walks through data of paper PMC11013662, “New Thiosemicarbazide Derivatives with Multidirectional Biological Action” (Molecules, 2024).

The structures appear in SMILES notation. Values after ≈ are worked out from the molar mass of the structure shown. Values joined by “and” are separate entries in the source; they are usually repeats but may differ in a detail not shown here. Identical values can stand only once.

For assay [1], the system named is Staphylococcus aureus ATCC 43300. Briefly: Broth microdilution MIC / MBC. It counts as cell-based. The conditions noted are these: S. aureus ATCC 43300 (MRSA); for MIC: read-out: MIC; for MBC: read-out: MBC. The procedure: (§1) The microdilution method was used to determine the MIC values of newly synthesized compounds. The antimicrobial activity of the thiosemicarbazides series was tested on ten reference bacterial strains purchased from the American Type Culture Collection (ATCC). Seven Gram-positive reference strains (S. aureus ATCC 29213, S. aureus ATCC 43300, S. aureus ATCC 6538, S. aureus ATCC 25923, S. epidermidis ATCC 12228, M. luteus ATCC 10240, and B. cereus ATCC 10876) and three Gram-negative reference bacteria (K. pneumoniae ATCC 13883, E. coli ATCC 25922, S. typhimurium ATCC 14028) were used. These bacterial strains are representatives of microorganisms that can cause the most common opportunistic infections among humans. The bacteria were grown on Mueller–Hinton agar (MHA) plates before examination. To perform the assay, all bacteria were placed in sterile saline (0.85% NaCl) to obtain a suspension of the optical density of the 0.5 McFarland standard (1.50 × 10^8 colony-forming units (CFUs)/mL). A solution of the tested compounds was prepared in dimethyl sulfoxide (DMSO) at a concentration of 50 mg/mL as a stock solution.
(§2) A 96-well microtiter plate and microbroth two-fold dilution method was used to determine the minimum inhibitory concentration (MIC) according to the EUCAST (European Committee on Antimicrobial Susceptibility Testing) reference recommendation. The solutions were then diluted with Mueller–Hinton broth (MHB, Biomaxima, Lublin, Poland) medium to obtain a solution with a basic concentration of 1000 µg/mL. Then, using the two-fold dilution method with MHB, the tested compounds were introduced into the wells of the microplate to provide a final concentration in the range of 0.49 to 1000 µg/mL. Then, 2 μL of bacterial inoculum with a density of 0.5 McFarland standard was added into each well. Each well was filled with a total volume of 100 μL. Then, microtiter plates were incubated for 18 ± 2 h at 35 °C. After incubation, the growth of bacteria was monitored by a Biotek ELx800 (Biokom, Janki, Poland) spectrophotometer at 600 nm (OD600). The MIC assays were performed in triplicate.
(§3) A negative control with MHB and without tested compounds was used. Clinically used anti-bacterial agents, cefuroxime and vancomycin, were included as positive controls for the purpose of comparison in a concentration range from 0.007 to 15.625 µg/mL.
(§4) The in vitro antimicrobial activity of the tested compounds was determined by the MIC, which was defined as the lowest concentration of the compound tested at which no visible growth of the test bacteria was observed. The MBC (the minimum bactericidal concentration) is defined as the lowest concentration of antimicrobial agent resulting in reduction in the viability of the initial bacterial inoculum by ≥99.9% on the plate. Generally, an MBC/MIC ratio less than 4 is considered bactericidal for an antimicrobial, and an MBC/MIC > 8 is indicative of bacteriostatic activity. For the MBC test, the Mueller–Hinton agar (MHA, Biomaxima, Poland) plate assay was used. MBC was determined after the broth dilution period of an MIC test has been completed. After the MIC detection, 5 µL aliquots from each well were plated on an MHA plate and grown at 35 °C overnight. The MBC values were determined by observing the first clear area on the agar plate that has no observable bacterial growth.
(Dilution methods test growth across graded concentrations, often in twofold steps.)

The subject of assay [2] is Staphylococcus aureus ATCC 6538. Nature of the assay: Broth microdilution MIC / MBC. As to conditions: ATCC6538, S. aureus ATCC 6538. Format: cell-based. The procedure:
as §1, §2, §3, §4

The subject of assay [3] is Micrococcus luteus ATCC 10240. Briefly: Broth microdilution MIC / MBC. Format: cell-based. The conditions noted are these: ATCC10240, M. luteus ATCC 10240. The procedure:
as §1, §2, §3, §4

In assay [4] the test system is Staphylococcus aureus ATCC 25923. Briefly: Broth microdilution MIC / MBC. It counts as cell-based. As to conditions: for MIC: ATCC25923, S. aureus ATCC 25923, read-out: MIC; for MBC: ATCC25923, S. aureus ATCC 25923, read-out: MBC. The procedure:
as §1, §2, §3, §4

Assay [5] concerns Bacillus cereus ATCC 10876. Briefly: Broth microdilution MIC / MBC. It counts as cell-based. As to conditions: ATCC10876, B. cereus ATCC 10876. The procedure: as §1, §2, §3, §4
Assay [6] relates to Staphylococcus aureus ATCC 29213. Nature of the assay: Broth microdilution MIC / MBC. It counts as cell-based. As to conditions: ATCC29213, S. aureus ATCC 29213. As for the experimental part: as §1, §2, §3, §4
Assay [7] has as its system Staphylococcus epidermidis ATCC 12228. Nature of the assay: Broth microdilution MIC / MBC. It counts as cell-based. The conditions noted are these: ATCC12228, S. epidermidis ATCC 12228. As for the experimental part: as §1, §2, §3, §4
Assay [8] has as its system lipid oxidation stimulated by iron (II) ions in rat brain homogenate. Nature of the assay: Antioxidant activity: MDA from iron(II)-stimulated lipid oxidation in brain homogenate. Format: biochemical. As to conditions: 10 μM compound; for MDA: 0.1% FeCl2 and 1 mM ascorbic acid, 1 h 37 °C; for Antioxidative Potential Value: reduction of MDA vs control sample. As for the experimental part: The antioxidant potential of the newly synthesized derivatives was assessed based on the analysis of the malondialdehyde (MDA) concentration formed as a product of lipid oxidation stimulated by iron (II) ions.
The antioxidant activity of the tested compounds was measured in the brain homogenate of intact rats bred at the Central Laboratory of Experimental Animals of the Medical University of Warsaw. Brains were collected according to procedure no. 3R. A 10% (m/v) rat brain solution was obtained by homogenizing freshly prepared brain washed with cold 0.9% NaCl in cold 10 mM TRIS-HCl buffer, with pH = 7.5. The homogenate was centrifuged at 4 °C (2000 rpm) to obtain supernatant 1 [54, 60]. Sample preparation was as follows: 100 μM stock solutions of test compounds in DMSO were added to […] of supernatant 1 to a final concentration of 10 μM. The reference sample contained brain homogenate supernatant and DMSO.
Freshly prepared solutions of 0.1% FeCl2 (0.2 mL) and 1 mM ascorbic acid (0.4 mL) were added to all samples to initiate the oxidation reaction. Samples were incubated for 1 h at 37 °C. Then, 8.1% sodium dodecyl sulfate (SDS) solution was added to inhibit the oxidation reaction. Acetate buffer (pH = 3.4) and 0.8% thiobarbituric acid (TBA) solution (pH = 6) were added to each sample to determine the concentration of malondialdehyde (MDA). The samples were incubated for 1 h at 100 °C, then cooled on ice and centrifuged (10 min, 4000 rpm). The absorbance was measured at a wavelength of 532 nm against a blank sample (acetate buffer with TBA solution).
Calculation of malondialdehyde (MDA) concentration was performed as follows: MDA concetration=∆ A532 nm×1.56×10^−6 [nmol MDA/h/g tissue]

Take `CCCCNC(=S)NNC(=O)c1cccc(C(F)(F)F)c1` [Compound 3c, 4-Butyl-1-(3-trifluoromethylbenzoyl)thiosemicarbazide]: the minimal inhibitory concentration (MIC) in assay [1] is greater than 1000 µg/mL; in assay [2] it was greater than 1000 µg/mL; in assay [3] it was 1000 µg/mL (≈ 3130 µM); in assay [4] it was 250 µg/mL (≈ 783 µM); in assay [5], greater than 1000 µg/mL; in assay [6] it was greater than 1000 µg/mL. In assay [7], this compound had an MIC of 1000 µg/mL (≈ 3130 µM). This compound registered an MDA in assay [8] of 1.773 ± 0.077 mM × 10^−3. Besides, the “Antioxidative Potential Value” in assay [8] is 34.3%.
Take `O=C(NNC(=S)Nc1cccc(F)c1)c1cccc(C(F)(F)F)c1` [Compound 3e, 1-(3-Trifluoromethylbenzoyl)-4-(3-fluorophenyl)thiosemicarbazide]: the MBC in assay [1], in assay [2], in assay [3], in assay [4], in assay [5] and in assay [6] was greater than 1000 µg/mL throughout. The compound also gave an MBC in assay [7] greater than 1000 µg/mL. Also, the MIC in assay [1] was found to be 31.2 µg/mL (≈ 87.5 µM); in assay [2] it was 15.6 µg/mL (≈ 43.7 µM); in assay [3] it was 15.6 µg/mL (≈ 43.7 µM); in assay [4], 31.2 µg/mL (≈ 87.5 µM); in assay [5], 7.81 µg/mL (≈ 21.9 µM); in assay [6], 15.6 µg/mL (≈ 43.7 µM). Besides, inhibition of growth in assay [7] (MIC) required 31.2 µg/mL (≈ 87.5 µM). The MDA in assay [8] came out at 1.274 ± 0.121 mM × 10^−3. In assay [8], the “Antioxidative Potential Value” was determined as 52.8%.
On to `O=C(NNC(=S)Nc1cccc(Cl)c1)c1cccc(C(F)(F)F)c1` [Compound 3a, 4-(3-Chlorophenyl)-1-(3-trifluoromethylbenzoyl)thiosemicarbazide], for which the MBC in assay [1] was 1000 µg/mL (≈ 2680 µM); in assay [2] it was 1000 µg/mL (≈ 2680 µM); in assay [3], 15.6 µg/mL (≈ 41.8 µM); in assay [4] it was 1000 µg/mL (≈ 2680 µM); in assay [5], 15.6 µg/mL (≈ 41.8 µM); in assay [6] it was 1000 µg/mL (≈ 2680 µM). Moreover, the MBC in assay [7] turned out to be 15.6 µg/mL (≈ 41.8 µM). The MIC amounted to 3.9 µg/mL (≈ 10.4 µM) in assay [1]; 1.95 µg/mL (≈ 5.22 µM) in assay [2]; 1.95 µg/mL (≈ 5.22 µM) in assay [3]; 1.95 µg/mL (≈ 5.22 µM) in assay [4]; 1.95 µg/mL (≈ 5.22 µM) in assay [5]; 1.95 µg/mL (≈ 5.22 µM) in assay [6]. The compound also displayed an MIC in assay [7] of 1.95 µg/mL (≈ 5.22 µM). In assay [8], this compound yielded an MDA of 1.395 ± 0.232 mM × 10^−3. The “Antioxidative Potential Value” in assay [8] was found to be 48.3%.
For `Cc1cccc(NC(=S)NNC(=O)c2cccc(C(F)(F)F)c2)c1` [Compound 3d, 1-(3-Trifluoromethylbenzoyl)-4-(3-methylphenyl)thiosemicarbazide], the MIC in assay [1] was greater than 1000 µg/mL; in assay [2], greater than 1000 µg/mL; in assay [3] it was 1000 µg/mL (≈ 2830 µM); in assay [4], 1000 µg/mL (≈ 2830 µM); in assay [5] it was greater than 1000 µg/mL; in assay [6], greater than 1000 µg/mL. In assay [7], this compound gave an MIC of 1000 µg/mL (≈ 2830 µM). Further, the MDA in assay [8] came to 1.320 ± 0.143 mM × 10^−3. Further, in assay [8], the “Antioxidative Potential Value” is 50.1% and 51.1%.
On to `O=C(NNC(=S)Nc1ccccc1)c1cccc(C(F)(F)F)c1` [Compound 3f, 1-(3-Trifluoromethylbenzoyl)-4-(phenyl)thiosemicarbazide], for which the minimal inhibitory concentration (MIC) in assay [1] was greater than 1000 µg/mL; in assay [2], greater than 1000 µg/mL; in assay [3] it was 1000 µg/mL (≈ 2950 µM); in assay [4] it was 62.5 µg/mL (≈ 184 µM); in assay [5], greater than 1000 µg/mL; in assay [6] it was greater than 1000 µg/mL. The compound further yielded an MIC in assay [7] of 1000 µg/mL (≈ 2950 µM). Further, in assay [8], the MDA is listed as 1.450 ± 0.006 mM × 10^−3. Further, in assay [8], the “Antioxidative Potential Value” was found to be 46.3%.
`FC(F)(F)c1cccc(-c2n[nH]c(=S)n2-c2cccc(Cl)c2)c1` [Compound 4, 4-(3-Chlorophenyl)-5-(3-trifluoromethylphenyl)-2,4-dihydro-3H-1,2,4-triazole-3-thione]: the MIC in assay [1] is greater than 1000 µg/mL; in assay [2], greater than 1000 µg/mL; in assay [3], 1000 µg/mL (≈ 2810 µM); in assay [4], 1000 µg/mL (≈ 2810 µM); in assay [5], greater than 1000 µg/mL; in assay [6] it was greater than 1000 µg/mL. The compound also had an MIC in assay [7] of 500 µg/mL (≈ 1410 µM). The compound also displayed an MDA in assay [8] of 2.022 ± 0.121 mM × 10^−3. For the same compound, the “Antioxidative Potential Value” in assay [8] came to 25.1%.
With `COc1cccc(NC(=S)NNC(=O)c2cccc(C(F)(F)F)c2)c1` [Compound 3b, 1-(3-Trifluoromethylbenzoyl)-4-(3-methoxyphenyl)thiosemicarbazide], the MIC in assay [1] is greater than 1000 µg/mL; in assay [2], greater than 1000 µg/mL; in assay [3] it was 500 µg/mL (≈ 1350 µM); in assay [4], 62.5 µg/mL (≈ 169 µM); in assay [5], greater than 1000 µg/mL; in assay [6], greater than 1000 µg/mL. Besides, the MIC in assay [7] was greater than 1000 µg/mL. Moreover, the MDA in assay [8] came to 1.703 ± 0.177 mM × 10^−3. The “Antioxidative Potential Value” in assay [8] turned out to be 36.9%.

For orientation: MIC means the smallest concentration in the dilution series that meets the test's criterion for growth inhibition. One may read the MBC as the lowest tested concentration that kills the bacteria rather than only halting them.
